{
  "source": "paper PMC9549030",
  "about": "“Structural basis for specific inhibition of the deubiquitinase UCHL1” (Nature Communications, 2022)",
  "key": {"UCHL3": {"target": "T1, UCHL3 (Homo sapiens, UniProt P15374)", "T1 sequence (P15374 1-230)": "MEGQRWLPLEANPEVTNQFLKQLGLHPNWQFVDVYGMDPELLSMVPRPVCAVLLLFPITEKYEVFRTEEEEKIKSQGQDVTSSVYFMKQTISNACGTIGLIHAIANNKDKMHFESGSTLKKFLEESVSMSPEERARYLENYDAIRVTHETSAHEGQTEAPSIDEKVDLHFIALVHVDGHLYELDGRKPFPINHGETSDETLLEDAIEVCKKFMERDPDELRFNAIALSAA", "experiment": "Ub-Rhodamine (Ubiquitin rhodamine cleavage) assay", "assay_type": "biochemical", "settings": "for normalized UCHL3 activity: independent experiments"}, "UCHL3 A11I+L168F": {"target": "T2, UCHL3 A11I+L168F (Homo sapiens, UniProt P15374, A11I/L168F)", "T2 sequence (P15374 1-230 A11I/L168F)": "T1 sequence (P15374 1-230) with A11I, L168F", "experiment": "Ub-Rhodamine (Ubiquitin rhodamine cleavage) assay", "assay_type": "biochemical"}, "DUBs in HEK293 lysate": {"tested_on": "DUBs in HEK293 lysate", "experiment": "Activity-based protein profiling in the lysate with Ub-VS competition", "assay_type": "binding, human", "settings": "1 µM, 1 h", "method": "Cells (4 × 10^6) were seeded in 10 cm dishes and grown to 90% confluency. The medium was aspirated, cells were washed with ice-cold PBS, treated with 600 µL ABP lysis buffer (1% (v/v) IGEPAL, 50 mM Tris, 150 mM NaCl, 5% glycerol, pH 8, cOmplete protease inhibitor cocktail), and incubated on ice for 15 min. The lysed cells were scrapped off the dish, cleared by centrifugation, and the protein concentration was determined via a Bradford assay. […] Each compound was diluted to a 2x concentration in PBS buffer from a 10 mM stock in DMSO (final concentration: 1 µM). Then each compound dilution or a DMSO dilution was mixed with cell lysate and incubated for one hour at room temperature. […] Samples were resolved by SDS-PAGE using a 4–12% Bis-Tris gel (Invitrogen, NuPAGE) with MES SDS running buffer for 50 min at 180 V. Fluorescence was read out using the Alexa564 (λex/em 520–545/577–613 nm, for TAMRA) and Alexa680 (λex/em 650–675/700–730 nm, for the PageRuler Prestained NIR Protein Ladder (Thermo Scientific)) channels on a ChemiDoc MP Imaging System (Bio-Rad)."}, "UCHL1 in HEK293 cells": {"tested_on": "T3, UCHL1 in HEK293 cells", "T3 construct": "Western blot analysis of endogenous UCHL1 labeled with HA-Ub-VS after treatment of HEK293 cells; endogenous in cells; host or cells: HEK293", "experiment": "Cellular Ub-probe (HA-Ub-VS) competition, inhibition of cellular UCHL1", "assay_type": "cell-based, human", "settings": "HEK293 cells", "summary_of_the_method": "(§1)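 Cell lysates adjusted to 2 mg/ml total protein, labeled with 1 µM HA-Ub-VS probe for 30 min at 37 °C, then quenched in LDS buffer. Probe labeling of UCHL1 read out by SDS-PAGE and western blot with HRP chemiluminescence.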"}, "UCHL1 in U-87 MG cells": {"tested_on": "T4, UCHL1 in U-87 MG cells", "T4 construct": "Western blot analysis of endogenous UCHL1 labeled with HA-Ub-VS after treatment of U-87 MG cells; endogenous in cells; host or cells: U-87 MG", "experiment": "Cellular Ub-probe (HA-Ub-VS) competition, inhibition of cellular UCHL1", "assay_type": "cell-based, human", "settings": "1 or 24 h", "summary_of_the_method": "as §1"}, "UCHL1": {"target": "T5, UCHL1 (Homo sapiens, UniProt P09936)", "T5 sequence (P09936 1-223)": "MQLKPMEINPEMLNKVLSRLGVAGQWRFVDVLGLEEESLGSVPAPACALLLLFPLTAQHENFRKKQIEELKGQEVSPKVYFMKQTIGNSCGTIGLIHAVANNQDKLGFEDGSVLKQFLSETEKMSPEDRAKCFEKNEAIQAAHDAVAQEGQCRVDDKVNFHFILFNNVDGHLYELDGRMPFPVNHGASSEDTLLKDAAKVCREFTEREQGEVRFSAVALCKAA", "experiment": "Identification of probe-labeled proteins with mass spectrometry (pulldown enrichment)", "settings": "HEK293 cells, 24 h", "protocol": "Cells were cultured, treated with a compound, and lysed as described above. The cell lysate was diluted to a protein concentration of 2 mg/mL with ABP lysis buffer. 1 µL of each click reagent (see above) were added to each sample, followed by an incubation period of one hour at room temperature with protection from light. The sample volume was adjusted to 1000 µL with PBS and 30 µL of a NeutrAvidin (Thermo Fisher) bead slurry (prewashed 3x with PBS) were added to each sample. The samples were incubated for one hour to overnight on a rotator at 15 rpm at 4 °C. Beads were pelleted by centrifugation, the supernatant was discarded, and the beads were washed six times (1x with ½x lysis buffer, followed by five washes with PBS). After removing the washing solution completely, the beads were subjected to reduction with dithiothreitol (1 mM), alkylation with chloroacetamide (5 mM) and on-bead digestion with first LysC (Serva Biotech, 1 h, 37 °C), followed by trypsin (Sigma Aldrich, 1 h, overnight). Tryptic peptides were desalted with C18 StageTips and analyzed by nano-HPLC-MS/MS.\nAn Ultimate 3000 RSLC nano-HPLC system and a Hybrid-Orbitrap mass spectrometer (Q Exactive Plus) equipped with a nano-spray source (Thermo Fisher Scientific) was used. The protein fragments were enriched on a C18 PepMap 100 column (5 μm, 100 Å, 300 μm ID * 5 mm, Dionex) using 0.1% TFA, at a flow rate of 30 μL/min, for 5 min and separated on a C18 PepMap 100 column (3 μm, 100 Å, 75 μm ID × 50 cm) using a linear gradient (5–30% ACN/H2O + 0.1% formic acid over 90 min) with a flow rate of 300 nL/min. […] Signals in the mass range of m/z 300 to 1650 were acquired at a resolution of 70,000 for the full scan, followed by ten high-energy collision-dissociation (HCD) MS/MS scans of the most intense at least doubly charged ions at a resolution of 17,500. Proteins were relatively quantified by using MaxQuant[60] v.2.0.3.1, including the Andromeda search algorithm and searching the Homo sapiens reference proteome of the UniProt database. Briefly, an MS/MS ion search was performed for enzymatic trypsin cleavage, allowing two missed cleavages. Carbamidomethylation was set as a fixed protein modification, and oxidation of methionine and acetylation of the N-terminus were set as variable modifications. The mass accuracy was set to 20 parts per million (ppm) for the first search and to 4.5 ppm for the second search. The false discovery rates for peptide and protein identification were set to 0.01. Only proteins for which at least two peptides were quantified were chosen for further validation. Relative quantification of proteins was performed by using the label-free quantification algorithm implemented in MaxQuant. Statistical data analysis of pulldown samples was performed using Perseus[61] v.1.6.15.0, including proteins which were identified in at least four of the five biological replicates which were used per condition. Label-free quantification (LFQ) intensities were log-transformed (log2); replicate samples were grouped together. Pairwise comparisons of groups were performed separately. Missing values were imputed using small normally distributed values (width 0.3, downshift 1.8) and a two-sided t-test (s0 = 5, FDR = 0.001) was performed."}},
  "note": "Numbering of substitutions follows the chain as printed. Values joined by “and” are separate entries in the source; they are usually repeats but may differ in a detail not shown here. Identical values can stand only once. Like-named read-outs stand apart in the source and are kept apart here.",
  "data": [
    {"smiles": "C#CCCCNC(=O)c1ccc(-n2cnc(NC(=O)[C@H]3CCN(C#N)C3)c2)cc1", "note": "[GK13S]", "values": [
      {"measurement": "IC50", "setting": "UCHL3; Fig. 6b, catalytic domain, 1 h preincubation, read-out: IC50 (UCHL3)", "result": "> 10", "unit": "µM"},
      {"measurement": "normalized UCHL3 activity", "setting": "UCHL3; GK13S 0.305176 nM, 1 h preincubation", "result": "0.9831 and 1.008 and 0.9131 and 1.009"},
      {"measurement": "normalized UCHL3 activity", "setting": "UCHL3; GK13S 0.610352 nM, 1 h preincubation", "result": "1.008 and 0.9835 and 0.9698 and 1.0514"},
      {"measurement": "normalized UCHL3 activity", "setting": "UCHL3; GK13S 1.2207 nM, 1 h preincubation", "result": "0.9936 and 1.008 and 1.001 and 1.003"},
      {"measurement": "normalized UCHL3 activity", "setting": "UCHL3; GK13S 2.44141 nM, 1 h preincubation", "result": "1.012 and 1.01 and 1.135 and 1.033"},
      {"measurement": "normalized UCHL3 activity", "setting": "UCHL3; GK13S 4.88281 nM, 1 h preincubation", "result": "1.012 and 1.015 and 0.9843 and 1.023"},
      {"measurement": "normalized UCHL3 activity", "setting": "UCHL3; GK13S 9.76562 nM, 1 h preincubation", "result": "0.9453 and 1.0198 and 0.9972 and 1.02"},
      {"measurement": "normalized UCHL3 activity", "setting": "UCHL3; GK13S 19.5312 nM, 1 h preincubation", "result": "1.009 and 0.9664 and 0.9869 and 0.9884"},
      {"measurement": "normalized UCHL3 activity", "setting": "UCHL3; GK13S 39.0625 nM, 1 h preincubation", "result": "0.985 and 0.9652 and 1.009 and 1.006"},
      {"measurement": "normalized UCHL3 activity", "setting": "UCHL3; GK13S 78.125 nM, 1 h preincubation", "result": "1.004 and 0.9567 and 0.9151 and 0.8923"},
      {"measurement": "normalized UCHL3 activity", "setting": "UCHL3; GK13S 156.25 nM, 1 h preincubation", "result": "0.9712 and 0.9475 and 0.9259 and 1.044"},
      {"measurement": "normalized UCHL3 activity", "setting": "UCHL3; GK13S 312.5 nM, 1 h preincubation", "result": "1.024 and 0.9438 and 0.9427 and 1.0301"},
      {"measurement": "normalized UCHL3 activity", "setting": "UCHL3; GK13S 625 nM, 1 h preincubation", "result": "1.039 and 0.9614 and 0.9134 and 1.027"},
      {"measurement": "normalized UCHL3 activity", "setting": "UCHL3; GK13S 1250 nM, 1 h preincubation", "result": "1.008 and 0.9574 and 0.9187 and 1.016"},
      {"measurement": "normalized UCHL3 activity", "setting": "UCHL3; GK13S 2500 nM, 1 h preincubation", "result": "0.975 and 0.9516 and 0.9328 and 0.9957"},
      {"measurement": "normalized UCHL3 activity", "setting": "UCHL3; GK13S 5000 nM, 1 h preincubation", "result": "0.9885 and 0.924 and 0.8998 and 0.9921"},
      {"measurement": "normalized UCHL3 activity", "setting": "UCHL3; GK13S 10000 nM, 1 h preincubation", "result": "0.972 and 0.9338 and 0.9178 and 0.9898"},
      {"measurement": "IC50", "setting": "UCHL3; Supplementary Fig. 10c, 3 independent experiments, read-out: IC50 (UCHL3 wt)", "result": "> 100", "unit": "µM"},
      {"measurement": "IC50", "setting": "UCHL3 A11I+L168F", "result": "11 ± 2", "unit": "µM"},
      {"measurement": "DUB engagement (Ub-VS competitive labeling)", "setting": "DUBs in HEK293 lysate", "result": "Ubiquitin-probe competitive band of approx. 30 kDa"},
      {"measurement": "inhibition of cellular UCHL1", "setting": "UCHL1 in HEK293 cells; 1 µM, 24 h", "result": "near complete inhibition"},
      {"measurement": "inhibition of cellular UCHL1", "setting": "UCHL1 in HEK293 cells; 5 µM, 24 h", "result": "Full inhibition"},
      {"measurement": "inhibition of cellular UCHL1", "setting": "UCHL1 in HEK293 cells; 1 and 5 µM, 1 h and 24 h (Supplementary Fig. 5f)", "result": "time- and concentration-dependent inhibition"},
      {"measurement": "inhibition of cellular UCHL1", "setting": "UCHL1 in U-87 MG cells", "result": "complete inhibition"},
      {"measurement": "change in log2 enrichment values of UCHL1, GK13S vs GK13R", "setting": "UCHL1; 1 µM", "result": 2},
      {"measurement": "change in log2 enrichment values of UCHL1, GK13S vs GK16S", "setting": "UCHL1; 1 µM", "result": 5},
      {"measurement": "difference in UCHL1 enrichment, GK13S vs GK13R", "setting": "UCHL1; 1 µM", "result": "fourfold"},
      {"measurement": "difference in UCHL1 enrichment, GK13S vs GK16S", "setting": "UCHL1; 1 µM", "result": "> 32", "unit": "fold"},
      {"measurement": "enrichment factor of UCHL1 (log2, vs DMSO)", "setting": "UCHL1; 1 µM", "result": "8 and > 8"},
      {"measurement": "enrichment of UCHL1 vs DMSO", "setting": "UCHL1; 5 µM", "result": "~ 3000 fold"},
      {"measurement": "logarithmic enrichment factor of UCHL1 (log2, vs DMSO)", "setting": "UCHL1; 5 µM", "result": 11.5}
    ]}
  ]
}
